Data taken from article PMC6268373, “Systematic Study of the Physicochemical Properties of a Homologous Series of Aminobisphosphonates” (Molecules, 2012).
Values after ≈ are worked out from the molar mass of the structure shown. Where two headings read alike, the source gives them in different places.

Tests used:
[1] = Protonation constants by (traditional) potentiometric titration (TPT), SUPERQUAD; conditions: 0.1 M NaNO3, 25 °C; for pKa: TPT; for logβx ± 3σ, x = 1 (H3L−) / logβx ± 3σ, x = 2 (H4L) / logβx ± 3σ, x = 3 (H5L+) / logβx ± 3σ, x = −1 (HL3−) / logβx ± 3σ, x = −2 (L4−): overall protonation, zero level H2L2−
Description: Results were obtained from […] as overall stability constants (log β values); following the chosen zero level H2L^2−. This zero level H2L^2− was chosen in the calculations to avoid any accumulation of errors of protonation constants at different pH ranges. The log β results for reactions (4) and (5) obtained in the final refinements are listed in Table S3 (see Supporting Information) with error limits (±3σ), number of points/number of titrations and χ^2/Σ statistics.
The details of the experiments using (traditional) potentiometric titration are presented in the Supporting Information. The results of the determination by Sirius instrument are shown in the Supporting Information. Potentiometric titrations of the compounds were performed with the PCA200 apparatus (Sirius Analytical Instruments Ltd, Forest Row, East Sussex, UK).
Table S2. The effect of pH on aqueous solubility (mg/L) of aminoalkylbis(phosphonates) […]
Solubility (g/L) of Compound
Determination of the Protonation Constants Using (traditional) Potentiometric Titration. Reagents:
Aqueous 0.1 M NaOH was prepared from Titrisol ampoules (Merck) and 0.1 M HNO3 from Convol ampoules (BDH). The background solution was prepared by dissolving NaNO3 in deionised water.
The NaNO3 and NaCl used in reference electrode were p.a. grade (Merck). The water used in the dilutions and titration solutions was purified with Milli-RO and Milli-Q water purification systems […]
Potentiometric measurements: The protonation equilibria was studied in aqueous 0.1 M NaNO3 at 25.0 ± 0.1 °C through a series of potentiometric EMF titrations carried out with a Schott-Geräte GmbH […]
The cell arrangement for the measurement of the hydrogen ion concentration [H+] was as follows:
−RE […] equilibrium solution […] GE+ (1) where GE denotes a glass electrode (Schott N2680), and RE is Hg, Hg2Cl2 […] 0.01 M NaCl, 0.09 M NaNO3. Expression (2) is valid assuming that the activity coefficients are constant.
The cell parameter E0 and the liquid junction coefficient jH, valid in acidic solutions, were determined for each titration by adding a known amount of HNO3 to the background electrolyte. The value of the liquid junction coefficient jOH, valid in basic solutions, was determined periodically. Only stable EMF readings were used in the calculations.
During the measurements of the protonation equilibria, aqueous 0.1 M NaOH or 0.1 M HNO3 was […]
Four to eight independent titrations were carried out for each ligand. The number of data points used in […]
Data treatment: Protonation and deprotonation of the ligands were controlled by addition of HNO3 or NaOH. The curves of ZH versus pH were drawn to visualize the experimental data sets. ZH describes the average number of H+ ions added or liberated per mole of ligand and is given by the relationship […]
where CH denotes the total concentration of protons calculated over the zero level H2L2−.
In the evaluation of the equilibrium constants, the following two-component equilibria were utilized:
H2L2− ⇋ H2-xL(2+x)– + xH+ , x = 1–2; β–x (4) xH+ + H2L2− ⇋ Hx+2Lx–2, x = 1–3; βx (5)
Mathematical analysis of the systems involves a search for protonation models and equilibrium constants that best describe the experimental data. The calculations were carried out with the computer […]
1200). The sample standard deviation Σ and the χ2 statistics used as criteria in the selection of the models were those provided by the program. As a means to improve the confidence level, the error limits for log β values determined in this study are reported as three times the standard deviation estimated by the program.
Figure S2. ZH vs. pH for protonation of compounds (a) 1; (b) 2; (c) 3; (d) 4 and (e) 5.

[2] = Thermal analysis (TG/DTA and TGA 7); format: physicochemical; conditions: for Td / Td (decomposition onset): air; for Td: 5 °C/min; for Temp. range of 1st cleavage: lower limit taken at 0.5 wt-%; for Td (decomposition onset): average from both instruments, heating rate 5 °C/min
Description: Thermal decomposition paths with evaluation of crystal water content were obtained parallel with two instruments; Perkin Elmer STA 6000 thermogravimetric TG/DTA and Perkin Elmer TGA 7 analyzers (Perkin Elmer, Massachusetts, USA). Measurements were carried out in an open platinum crucible (the higher 5 mm crucible was used in TG/DTA and a shallower 2 mm crucible in TGA 7) under air atmosphere (flow rate of 45 mL/min) with a heating rate of 5 °C/min over the temperature range of 25−700 °C. The temperature calibration of STA 6000 was made using melting points of indium (156.60 °C) and zinc (419.5 °C) standards. For TGA 7 magnetic Curie-point calibration technique (Alumel, Ni, Perkalloy, Fe) was used. The weight balance of both instruments was calibrated by measuring a standard weight of 50 mg at room temperature. The sample weights used in the measurements were about 4–8 mg, and for each bisphosphonate, it was attempted to keep the same on both instruments. The melting/dehydration/decomposition behavior of the compounds was also visually monitored using a Stuart Scientific SMP3 melting point apparatus.

[3] = cited from earlier work; for logK, pKa3: H2L2− + H+ ⇋ H3L−; for logK, pKa2: H3L− + H+ ⇋ H4L; for logK, pKa4: HL3− + H+ ⇋ H2L2−
[4] = Effect of pH on aqueous solubility; conditions: 21 °C, thermodynamic from solid
Description: (§1) A Jasco V-530 UV/Vis spectrophotometer was used for phosphorus determination at 880 nm wavelength. Filtered liquid samples were diluted to the appropriate volume with Milli-Q water and were digested with the persulphate oxidation technique in acidic medium at elevated temperature to convert aminobisphosponates to orthophosphate. In an acidic medium, ammonium molybdate and antimony potassium tartrate react with orthophosphate to form a phosphomolybdic acid that is reduced to intensively colored molybdenum blue by ascorbic acid [30].
(§2) The mixture containing an excess of the studied compound was first agitated for predetermined time with magnetic stirrer and before taking the sample mixture was allowed to stand for 24 h without stirring. The sample (about 5 mL) was taken from liquid above the solids, pH was measured and the sample was filtered through 0.2 µm membrane filter to remove any possible insoluble particles. The phosphorus concentration in the filtered sample solution was determined by using the spectrophotometric method described above.

[5] = Effect of temperature on aqueous solubility; conditions: thermodynamic from solid
Description: as §1, §2

[6] = pKa determination with Sirius instrument (PCA200)
[7] = Aqueous solubility of saturated solution at 21 °C (phosphorus determination by molybdenum blue spectrophotometry); conditions: 21 °C; for solubility at 30 min: water, thermodynamic from solid; for pH of saturated solution: saturated aqueous solution, agitation time 30 min
Description: as §1, §2

[8] = aqueous 0.1 M NaNO3, log K, pKa1 (H4L + H+ ⇋ H5L+), approximate values
[9] = aqueous 0.1 M NaNO3, log K, pKa2 (H3L− + H+ ⇋ H4L)
[10] = aqueous 0.1 M NaNO3, log K, pKa3 (H2L2− + H+ ⇋ H3L−)
[11] = aqueous 0.1 M NaNO3, log K, pKa4 (HL3− + H+ ⇋ H2L2−)
[12] = aqueous 0.1 M NaNO3, log K, pKa5 (L4− + H+ ⇋ HL3−)

NCCCCCC(O)(P(=O)(O)O)P(=O)(O)O [Compound 4, (6-Amino-1-hydroxyhexylidene)bisphosphonic acid, reference compound]
pKa ([1]; log K, pKa1 (H4L + H+ ⇋ H5L+), approximate values): 0.94 | pKa ([1]; log K, pKa2 (H3L− + H+ ⇋ H4L)): 2.38 | pKa ([1]; log K, pKa3 (H2L2− + H+ ⇋ H3L−)): 6.62 | pKa ([1]; log K, pKa4 (HL3− + H+ ⇋ H2L2−)): 10.9 | pKa ([1]; log K, pKa5 (L4− + H+ ⇋ HL3−)): 11.9 | logβx ± 3σ, x = 1 (H3L−) [1]: 6.62 ± 0.02 | logβx ± 3σ, x = 2 (H4L) [1]: 9.00 ± 0.03 | logβx ± 3σ, x = 3 (H5L+) [1]: 9.94 ± 0.12 | logβx ± 3σ, x = −1 (HL3−) [1]: −10.86 ± 0.02 | logβx ± 3σ, x = −2 (L4−) [1]: −22.80 ± 0.02 | Onset temperature of first cleavage ([2]; TG/DTA, higher crucible): 208 °C | Td ([2]; TG/DTA, higher crucible): 208 °C | Temp. range of 1st cleavage ([2]; TG/DTA, higher crucible): 196–260 °C | Onset temperature of first cleavage ([2]; TGA 7, shallow crucible): 215 °C | Td ([2]; TGA 7, shallow crucible): 215 °C | Temp. range of 1st cleavage ([2]; TGA 7, shallow crucible): 183–251 °C | Td (decomposition onset) [2]: 212 °C | logK, pKa3 ([3]; ref 4): 6.50 | logK, pKa3 ([3]; ref 13): 5.49 | logK, pKa2 ([3]; ref 4): 2.45 | logK, pKa2 ([3]; ref 13): 2.90 | logK, pKa4 ([3]; ref 4): 10.66 | logK, pKa4 ([3]; ref 13): 8.63 | logK, pKa5 ([3]; L4− + H+ ⇋ HL3−, ref 13): 10.9 | solubility at 30 min ([4]; pH 0, aqueous buffer): 6340 µg/mL (≈ 22.9 mM) | solubility at 30 min ([4]; pH 1, aqueous buffer): 3840 µg/mL (≈ 13.9 mM) | solubility at 30 min ([4]; pH 2, aqueous buffer): 2900 µg/mL (≈ 10.5 mM) | solubility at 30 min ([4]; pH 3, aqueous buffer): 2970 µg/mL (≈ 10.7 mM) | solubility at 30 min ([4]; pH 4, aqueous buffer): 3090 µg/mL (≈ 11.1 mM) | solubility at 30 min ([4]; pH 5, aqueous buffer): 3220 µg/mL (≈ 11.6 mM) | solubility at 30 min ([4]; pH 6, aqueous buffer): 3390 µg/mL (≈ 12.2 mM) | solubility at 30 min ([4]; pH 7, aqueous buffer): 3420 µg/mL (≈ 12.3 mM) | solubility at 30 min ([4]; pH 8, aqueous buffer): 3530 µg/mL (≈ 12.7 mM) | solubility at 30 min ([4]; pH 9, aqueous buffer): 3080 µg/mL (≈ 11.1 mM) | solubility at 30 min ([4]; pH 10, aqueous buffer): 3180 µg/mL (≈ 11.5 mM) | solubility at 30 min ([4]; pH 11, aqueous buffer): 3380 µg/mL (≈ 12.2 mM) | solubility at 24 h ([5]; 4 °C, water): 4470 µg/mL (≈ 16.1 mM) | solubility at 24 h ([5]; 7.6 °C, water): 4600 µg/mL (≈ 16.6 mM) | solubility at 24 h ([5]; 21 °C, water): 5170 µg/mL (≈ 18.7 mM) | solubility at 24 h ([5]; 30 °C, water): 5770 µg/mL (≈ 20.8 mM) | solubility at 24 h ([5]; 40 °C, water): 7620 µg/mL (≈ 27.5 mM) | solubility at 24 h ([5]; 50 °C, water): 9550 µg/mL (≈ 34.5 mM) | pKa 2 (Sirius) [6]: 2.99 | pKa 3 (Sirius) [6]: 6.36 | pKa 4 (Sirius) [6]: 6.82 | solubility at 30 min [7]: 3420 µg/mL (≈ 12.3 mM) | pH of saturated solution [7]: 2.26

NCCCCC(O)(P(=O)(O)O)P(=O)(O)O [Compound 3, (5-Amino-1-hydroxypentylidene)bisphosphonic acid]
pKa [1, 8]: 0.62 | pKa [1, 9]: 2.3 | pKa [1, 10]: 6.44 | pKa [1, 11]: 10.8 | pKa [1, 12]: 12.1 | logβx ± 3σ, x = 1 (H3L−) [1]: 6.44 ± 0.02 | logβx ± 3σ, x = 2 (H4L) [1]: 8.74 ± 0.03 | logβx ± 3σ, x = 3 (H5L+) [1]: 9.36 ± 0.51 | logβx ± 3σ, x = −1 (HL3−) [1]: −10.78 ± 0.02 | logβx ± 3σ, x = −2 (L4−) [1]: −22.83 ± 0.03 | Onset temperature of first cleavage ([2]; TG/DTA, higher crucible): 217 °C | Td ([2]; TG/DTA, higher crucible): 217 °C | Temp. range of 1st cleavage ([2]; TG/DTA, higher crucible): 198–252 °C | Onset temperature of first cleavage ([2]; TGA 7, shallow crucible): 224 °C | Td ([2]; TGA 7, shallow crucible): 224 °C | Temp. range of 1st cleavage ([2]; TGA 7, shallow crucible): 195–265 °C | Td (decomposition onset) [2]: 220 °C | pKa 2 (Sirius) [6]: 1.92 | pKa 3 (Sirius) [6]: 2.42 | pKa 4 (Sirius) [6]: 6.40 | solubility at 30 min ([7]; Milli-Q water, unbuffered): 4010 µg/mL (≈ 15.2 mM) | pH of saturated solution [7]: 2.22

NCCCCCCCC(O)(P(=O)(O)O)P(=O)(O)O [Compound 5, (8-Amino-1-hydroxyoctylidene)bisphosphonic acid]
pKa [1, 8]: 1.08 | pKa [1, 9]: 2.52 | pKa [1, 10]: 6.75 | pKa [1, 11]: 10.7 | pKa [1, 12]: 11.7 | logβx ± 3σ, x = 1 (H3L−) [1]: 6.75 ± 0.03 | logβx ± 3σ, x = 2 (H4L) [1]: 9.27 ± 0.05 | logβx ± 3σ, x = 3 (H5L+) [1]: 10.35 ± 0.24 | logβx ± 3σ, x = −1 (HL3−) [1]: −10.67 ± 0.03 | logβx ± 3σ, x = −2 (L4−) [1]: −22.32 ± 0.02 | Onset temperature of first cleavage ([2]; TG/DTA, higher crucible): 193 °C | Td ([2]; TG/DTA, higher crucible): 193 °C | Temp. range of 1st cleavage ([2]; TG/DTA, higher crucible): 182–212 °C | Onset temperature of first cleavage ([2]; TGA 7, shallow crucible): 197 °C | Td ([2]; TGA 7, shallow crucible): 197 °C | Temp. range of 1st cleavage ([2]; TGA 7, shallow crucible): 175–222 °C | Td (decomposition onset) [2]: 195 °C | solubility at 24 h ([5]; Milli-Q water, unbuffered, 4 °C): 1850 µg/mL (≈ 6.06 mM) | solubility at 24 h ([5]; Milli-Q water, unbuffered, 7.6 °C): 1900 µg/mL (≈ 6.23 mM) | solubility at 24 h ([5]; Milli-Q water, unbuffered, 21 °C): 2100 µg/mL (≈ 6.88 mM) | solubility at 24 h ([5]; Milli-Q water, unbuffered, 30 °C): 2270 µg/mL (≈ 7.44 mM) | solubility at 24 h ([5]; Milli-Q water, unbuffered, 40 °C): 2400 µg/mL (≈ 7.86 mM) | solubility at 24 h ([5]; Milli-Q water, unbuffered, 50 °C): 3450 µg/mL (≈ 11.3 mM) | pKa 2 (Sirius) [6]: 3.10 | pKa 3 (Sirius) [6]: 6.46 | pKa 4 (Sirius) [6]: 7.12 | pKa 5 (Sirius) [6]: 10.77 | solubility at 30 min ([7]; Milli-Q water, unbuffered): 2100 µg/mL (≈ 6.88 mM) | pH of saturated solution [7]: 2.61
